Measured values reported in PMC9655717, “New Molecules of Diterpene Origin with Inhibitory Properties toward α-Glucosidase” (International Journal of Molecular Sciences, 2022).
Converted amounts (≈) assume the structure as drawn.

Key:
[1] = target: T1, yeast α-GLy (α-glucosidase, Sigma G0660) (Saccharomyces cerevisiae, UniProt P53341); experiment: biochemical; type: biochemical; conditions: yeast α-glucosidase, 37°C, pH 6.8; read-out: IC50 ± SE, α-glucosidase inhibition
T1 construct: purchased Sigma G0660

[2] = target: T2, α-glucosidase (Sigma G0660) (Saccharomyces cerevisiae, UniProt P53341); experiment: Kinetic study of α-glucosidase inhibition (Michaelis-Menten, pNPG); type: biochemical, yeast
T2 construct: purchased Sigma G0660
Description: The method’s principle based on the hydrolyzed reaction of 4-nitrophenyl-α-D-glucopiranoside with α-glucosidase enzyme into yellow 4- […]
The kinetic assay was performed according to the method using a series of […]
μL of 100 mM phosphate buffer (pH 6.8), 25 μL of α-glucosidase (0.4 U/mL, Sigma G0660) were pre-incubated for 10 min at 37 °C. DMSO was added to the respective control wells to a 0.64% final concentration. The reaction was initiated with the addition of 25 μL of p-nitrophenyl-[…] (pNPG, Sigma N1377) solution in a range of final concentrations. The amount of released p-nitrophenol from pNPG was immediately measured at 410 nm with Infinite M200 PRO (Tecan, Austria). Conversion of optical density to nM p-nitrophenol was performed with a standard curve. Reaction rates were determined from the linear parts of kinetic curves and fitted to the Michaelis-Menten equation. The assay was performed in triplicate wells and two independent […]
Ligands were prepared with MarvinSketch 18.8.0 (ChemAxon Ltd.). Ligands were hydrogenized and conformations with minimal potential energy were obtained using the MMFF94 force field. The homology model of S. cerevisiae α-glucosidase was obtained with SWISS-MODEL as described previously. Protein and ligand structures followed standard preparation procedure using AutoDocTools 1.5.6. We used AutoDock Vina 1.1.211 to perform all docking runs. The grid box with 70×80×80 Å dimensions was centered on the enzyme molecule to include the entire 3D space around the protein. The top-score binding poses were used in subsequent analysis. […]
(Dassault Systemes Biovia Corp.).
DPPH (0.1 mM) was diluted in methanol. 200 μL of this solution was added to 1.3 μL of various concentrations of compounds in DMSO (256.0, 64.0, 16.0, and 4.0 μg/mL). The mixture was performed by a 96-well plate at 25 °C in 30 min. […]

[3] = DPPH radical scavenging assay; conditions: DPPH 0.1 mM in methanol, 25°C, 30 min
Description: DPPH radical scavenging assay as described by Ha. The hydrogen atom donating ability of the plant extractives was determined by the decolorization of methanol solution of 2,2-diphenyl-1-picrylhydrazyl (DPPH). DPPH produces purple color in methanol solution and fades to shades of yellow color in the presence of antioxidants. […]
DPPH (0.1 mM) was diluted in methanol. 200 μL of this solution was added to 1.3 μL of various concentrations of compounds in DMSO (256.0, 64.0, 16.0, and 4.0 μg/mL). The mixture was performed by a 96-well plate at 25 °C in 30 min. Then, absorbance was determined by Epoch™ Microplate Spectrophotometer (at 517 nm). The percentage of DPPH quenching activity was computed by the following formula:
Inhibitory percentage SC (%) = [(Ao - A1)/Ao] × 100. where AO was defined as the absorbance of control reaction, and A1 represented for the absorbance in the presence of test or standard sample. Each experiment was repeated three times. Quercetin was used as a reference compound. […]

[4] = MTT cytotoxicity assay; conditions: human
Description: The cytotoxic activity of compounds was evaluated against four cancer cell lines KB, Hep-G2, Lu-1 and MCF-7, using colorimetric MTT assay. […]
MTT assay was used to determine the cytotoxic activity of compounds with human cancer cell lines acquired from the American Type Culture Collection (ATCC): epidermoid carcinoma (KB, ATCC number CCL-17), hepatocellular carcinoma (HepG2, ATCC number HB-8065), lung adenocarcinoma LU-1 (ATCC number HTB - 57TM), breast adenocarcinoma MCF-7 (ATCC number HTB - 22TM. Cells were cultured in medium DMEM supplemented with 10% Fetal bovine serum (FBS), 1% Penicillin and Streptomycin and 1% L-glutamine, under a humidified atmosphere of 5% CO2 at 37°C.
Compounds were dissolved in DMSO at 40 mg/mL and a series of dilutions for each compound was prepared to final concentrations of 256, 64, 16, 4 and 1 μg/mL. Cells were separated with trypsin and seeded in each well with 3 x10^4 cells per ml and were treated with sample different concentrations on 96-well plates. Untreated cells represented the controls. After 72h of treatment, an MTT solution (10 μl, 5 mg/mL) of phosphate buffer was added to each well for 4 h until intracellular purple formazan crystals are visible. Remove MTT and add DMSO solution (100 μL). The optical density of the solution was determined by Epoch™ Microplate Spectrophotometer at 540 nm. The inhibition ratio was calculated based on the optical densities from the three replicate […]
are evaluated to have cytotoxic activity.

T2 sequence (P53341 whole entry): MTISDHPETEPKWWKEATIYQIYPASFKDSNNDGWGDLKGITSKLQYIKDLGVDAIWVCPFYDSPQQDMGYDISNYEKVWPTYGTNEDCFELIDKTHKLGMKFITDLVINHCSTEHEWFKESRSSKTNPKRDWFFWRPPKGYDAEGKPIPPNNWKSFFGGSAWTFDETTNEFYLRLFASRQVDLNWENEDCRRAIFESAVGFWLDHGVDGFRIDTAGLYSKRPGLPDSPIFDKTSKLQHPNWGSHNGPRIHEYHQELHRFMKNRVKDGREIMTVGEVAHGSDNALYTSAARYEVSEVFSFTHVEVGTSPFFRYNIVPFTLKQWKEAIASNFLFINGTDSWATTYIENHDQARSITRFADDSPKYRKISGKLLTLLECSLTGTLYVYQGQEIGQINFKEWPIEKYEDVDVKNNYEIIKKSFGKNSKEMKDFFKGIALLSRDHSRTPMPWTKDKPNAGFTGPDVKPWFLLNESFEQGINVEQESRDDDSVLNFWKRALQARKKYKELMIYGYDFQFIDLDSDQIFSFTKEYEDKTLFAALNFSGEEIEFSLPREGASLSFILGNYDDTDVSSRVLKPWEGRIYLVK
T1 sequence (P53341 whole entry): as above

C#CCOC(=O)C1(C)CCCC2(C)C1CCC13C=C(C(C)C)C(CC12)c1c(O)cc2c(C(=O)OC)c(C)[nH]c2c13 (stereo not shown) [Compound 45, Methyl 7-propynyl 1-hydroxy-13-isopropyl-7,10a,2′-trimethyl-5,6,6b,7,8,9,10,10a,10b,11,12,13-dodecahydro-12,4b-ethenophenanthro [2,1-g]indole-7,1′-dicarboxylate]
IC50 [1]: 150 ± 8 nM | Vmax ([2]; Compound 45 at 25 μM): 2.277 nM/min | Vmax ([2]; Compound 45 at 50 μM): 2.221 nM/min | Vmax ([2]; Compound 45 at 100 μM): 2.249 nM/min | mechanism of α-glucosidase inhibition ([2]; Michaelis-Menten nonlinear regression): competitive inhibitor | IC50 values, antioxidant test (DPPH) [3]: > 256 µg/mL | IC50 at 72 h ([4]; Hep-G2 hepatocellular carcinoma cells (ATCC HB-8065)): 47.2 ± 1 µg/mL (≈ 86.8 µM) | IC50 at 72 h ([4]; KB epidermoid carcinoma cells (ATCC CCL-17)): 42.2 ± 0.84 µg/mL (≈ 77.6 µM) | IC50 at 72 h ([4]; Lu-1 lung adenocarcinoma cells (ATCC HTB-57)): 16 ± 0.36 µg/mL (≈ 29.4 µM) | IC50 at 72 h ([4]; MCF-7 breast adenocarcinoma cells (ATCC HTB-22)): 30.2 ± 0.8 µg/mL (≈ 55.6 µM)
